The assay has as its system IDDM associated autoantibodies in sera. Kind of assay: ELISA of sera on plate-bound human GAD65 peptides. Format: binding. To be noted: for controls whose sera recognized the peptide: 13 control sera; for number of IDDM (at risk, pre-IDDM, at onset) patients positive (X) for the peptide (unlabelled sum line): IDDM sera of Table 11; for patients whose sera recognized the peptide: patients previously shown to be 64K positive. The protocol: Patient sera and most control sera were those used in a previous study (Kaufman, et al., J. Clin. Investigation, supra) All samples were coded and tested in a blind manner. Peptides were synthesized using an automatic instrument (Applied Biosystems, Foster City, Calif.) and standard conditions. Peptides were dissolved in 60 mM sodium bicarbonate buffer (pH 9.6) at 20 ug/ml and 100 ul of each was added to duplicated wells of a 96 well Nunc-Immuno Plate. Peptides were allowed to bind at 4° C. overnight. The plates were then washed three times with PBS+0.1% Tween 20 (wash buffer), after which the plates were pre-absorbed with 3% BSA in sodium bicarbonate buffer for 0.5 hours at 37° C., or at room temperature overnight. The plates were then washed 5 times with the above wash buffer. 100 ul of serum at a 1/300 dilution in PBS+0.1% Tween 20 and 1% BSA was added to each well and antibodies were allowed to bind for 1 hour at 37° C. The plates were washed 5 times with wash buffer. 100 ul of a 1/600 dilution of HRP-goat anti-human IgG (BRL, Gaithersberg, Md.) was added to each well and allowed to bind for 1 hour at 37° C. The plates were then washed 7 times and 100 ul of substrate buffer was added to each well for 30 minutes at room temperature. The color development was measured at 410 nm using an ELISA plate reader (ICN, Biomedicals, Costa Mesa, Calif.). Positive sera were defined as: OD410 of the sample/negative control ≧3.0.

Where [1] appears, read: IDDM At Onset serum 048, 1/300 dilution.
[2] abbreviates: IDDM At Onset serum 291, 1/300 dilution.
Where [3] appears, read: IDDM At Onset serum 705, 1/300 dilution.
Where [4] appears, read: IDDM At Onset serum S.H., 1/300 dilution.
Where [5] appears, read: IDDM At Risk serum 052, 1/300 dilution.
The mark [6] stands for this setting: IDDM At Risk serum L.I., 1/300 dilution.
Where [7] appears, read: Pre-IDDM serum 723, 1/300 dilution.
Where [8] appears, read: control serum 5620, 1/300 dilution.
[9] abbreviates: IDDM At Risk serum 356, 1/300 dilution.
The mark [10] stands for this setting: Pre-IDDM serum J.A., 1/300 dilution.
Where [11] appears, read: Pre-IDDM serum J.B. (2), 1/300 dilution.
[12] abbreviates: Pre-IDDM serum P.T. (1), 1/300 dilution.
Where [13] appears, read: Pre-IDDM serum P.T. (2), 1/300 dilution.
The mark [14] stands for this setting: Pre-IDDM serum R.S. (2), 1/300 dilution.
Where [15] appears, read: control serum S.M., 1/300 dilution.

For AALGIGTDSVILIKCDERGK [Peptide 20], the “controls whose sera recognized the peptide” value is recorded as “none”; the “number of IDDM (at risk, pre-IDDM, at onset) patients positive (X) for the peptide (unlabelled sum line)” value (“number of IDDM” below) is 7; the “patients whose sera recognized the peptide” value was 6/8. Besides, under setting [1], the “immunoreactivity of serum with GAD65 peptide” value (“immunoreactivity of serum” for short) is “X (X = positive for immunoreactivity as defined by 00/background^3.0)”. Also, the “immunoreactivity of serum” value under setting [2] is “X (X = positive for immunoreactivity as defined by 00/background^3.0)”. The “immunoreactivity of serum” value under setting [3] is “X (X = positive for immunoreactivity as defined by 00/background^3.0)”. The “immunoreactivity of serum” value under setting [4] is on record as “X (X = positive for immunoreactivity as defined by 00/background^3.0)”. Also, the “immunoreactivity of serum” value under setting [5] is “X (X = positive for immunoreactivity as defined by 00/background^3.0)”. For the same sequence, the “immunoreactivity of serum” value under setting [6] is given as “b (b = borderline response (00/background ?2.5-2.9).)”. In addition, under setting [7], the “immunoreactivity of serum” value was “X (X = positive for immunoreactivity as defined by 00/background^3.0)”.

On to AFTSEHSHFSLKKGAAALGI [Peptide 19], for which the “number of IDDM” value stood at 1. Also, the “immunoreactivity of serum” value under setting [5] is given as “X (X = positive for immunoreactivity as defined by 00/background^3.0)”.

As for ATHQDIDFLIEEIERLGQDL [Peptide 38], the “number of IDDM” value worked out at 1. For the same sequence, the “immunoreactivity of serum” value under setting [1] is “X (X = positive for immunoreactivity as defined by 00/background^3.0)”. Moreover, the “immunoreactivity of serum” value under setting [4] is recorded as “b (b = borderline response (00/background ?2.5-2.9).)”. Besides, the “immunoreactivity of serum” value under setting [5] is “b (b = borderline response (00/background ?2.5-2.9).)”.

For CGRHVDVFKLWLMWRAKGTTG [Peptide 30], the “immunoreactivity of serum” value under setting [8] is listed as “b (b = borderline response (00/background ?2.5-2.9).)”.

With DERGKMIPSDLERRILEAKQ [Peptide 21], the “controls whose sera recognized the peptide” value was “none”; the “number of IDDM” value is listed as 7; the “patients whose sera recognized the peptide” value is on record as 6/8. Moreover, under setting [1], the “immunoreactivity of serum” value is “X (X = positive for immunoreactivity as defined by 00/background^3.0)”. Moreover, the “immunoreactivity of serum” value under setting [2] is “X (X = positive for immunoreactivity as defined by 00/background^3.0)”. Moreover, the “immunoreactivity of serum” value under setting [3] is on record as “X (X = positive for immunoreactivity as defined by 00/background^3.0)”. The “immunoreactivity of serum” value under setting [4] is listed as “X (X = positive for immunoreactivity as defined by 00/background^3.0)”. The “immunoreactivity of serum” value under setting [9] is “X (X = positive for immunoreactivity as defined by 00/background^3.0)”. Also, under setting [7], the “immunoreactivity of serum” value is “X (X = positive for immunoreactivity as defined by 00/background^3.0)”. In addition, under setting [10], the “immunoreactivity of serum” value was “X (X = positive for immunoreactivity as defined by 00/background^3.0)”. The “immunoreactivity of serum” value under setting [11] is “b (b = borderline response (00/background ?2.5-2.9).)”. Further, the “immunoreactivity of serum” value under setting [12] is on record as “X (X = positive for immunoreactivity as defined by 00/background^3.0)”. Besides, under setting [13], the “immunoreactivity of serum” value is listed as “X (X = positive for immunoreactivity as defined by 00/background^3.0)”. Under setting [14], the “immunoreactivity of serum” value is reported as “b (b = borderline response (00/background ?2.5-2.9).)”. Further, the “immunoreactivity of serum” value under setting [15] was “b (b = borderline response (00/background ?2.5-2.9).)”.

As for DICKKYKIWMHVDAAWGGGLLMS [Peptide 24], the “immunoreactivity by both control and patient sera” value is “often positive”. Further, the “immunoreactivity of serum” value under setting [1] is listed as “X (X = positive for immunoreactivity as defined by 00/background^3.0)”. Also, under setting [2], the “immunoreactivity of serum” value was “X (X = positive for immunoreactivity as defined by 00/background^3.0)”. Moreover, the “immunoreactivity of serum” value under setting [3] is on record as “X (X = positive for immunoreactivity as defined by 00/background^3.0)”. Under setting [4], the “immunoreactivity of serum” value was “X (X = positive for immunoreactivity as defined by 00/background^3.0)”. The “immunoreactivity of serum” value under setting [5] is “X (X = positive for immunoreactivity as defined by 00/background^3.0)”. Further, the “immunoreactivity of serum” value under setting [9] was “X (X = positive for immunoreactivity as defined by 00/background^3.0)”. Moreover, the “immunoreactivity of serum” value (IDDM At Risk serum 825, 1/300 dilution) is “X (X = positive for immunoreactivity as defined by 00/background^3.0)”. Also, the “immunoreactivity of serum” value under setting [6] is given as “X (X = positive for immunoreactivity as defined by 00/background^3.0)”. For the same sequence, the “immunoreactivity of serum” value under setting [7] was “X (X = positive for immunoreactivity as defined by 00/background^3.0)”. Moreover, under “Pre-IDDM serum B.Y. (1), 1/300 dilution”, the “immunoreactivity of serum” value is “X (X = positive for immunoreactivity as defined by 00/background^3.0)”. For the same sequence, the “immunoreactivity of serum” value (Pre-IDDM serum B.Y. (2), 1/300 dilution) is given as “X (X = positive for immunoreactivity as defined by 00/background^3.0)”. Further, under setting [10], the “immunoreactivity of serum” value was “X (X = positive for immunoreactivity as defined by 00/background^3.0)”. For the same sequence, the “immunoreactivity of serum” value (Pre-IDDM serum J.B. (1), 1/300 dilution) is given as “X (X = positive for immunoreactivity as defined by 00/background^3.0)”. For the same sequence, the “immunoreactivity of serum” value under setting [11] was “X (X = positive for immunoreactivity as defined by 00/background^3.0)”. Under setting [12], the “immunoreactivity of serum” value is on record as “X (X = positive for immunoreactivity as defined by 00/background^3.0)”. Further, the “immunoreactivity of serum” value under setting [13] is “X (X = positive for immunoreactivity as defined by 00/background^3.0)”. The “immunoreactivity of serum” value (Pre-IDDM serum R.S. (1), 1/300 dilution) is “X (X = positive for immunoreactivity as defined by 00/background^3.0)”. For the same sequence, under setting [14], the “immunoreactivity of serum” value was “X (X = positive for immunoreactivity as defined by 00/background^3.0)”. Besides, the “immunoreactivity of serum” value (control serum 1688, 1/300 dilution) is listed as “X (X = positive for immunoreactivity as defined by 00/background^3.0)”. The “immunoreactivity of serum” value (control serum 4380, 1/300 dilution) is given as “X (X = positive for immunoreactivity as defined by 00/background^3.0)”. Further, the “immunoreactivity of serum” value under setting [8] is “X (X = positive for immunoreactivity as defined by 00/background^3.0)”. For the same sequence, for the setting “control serum 5748, 1/300 dilution”, the “immunoreactivity of serum” value was “X (X = positive for immunoreactivity as defined by 00/background^3.0)”. In addition, where the note is “control serum A.P., 1/300 dilution”, the “immunoreactivity of serum” value is listed as “X (X = positive for immunoreactivity as defined by 00/background^3.0)”. Besides, the “immunoreactivity of serum” value (control serum FA2, 1/300 dilution) is reported as “X (X = positive for immunoreactivity as defined by 00/background^3.0)”. Besides, the “immunoreactivity of serum” value (control serum FA8, 1/300 dilution) is listed as “X (X = positive for immunoreactivity as defined by 00/background^3.0)”. The “immunoreactivity of serum” value (control serum FA9, 1/300 dilution) is “X (X = positive for immunoreactivity as defined by 00/background^3.0)”. Besides, the “immunoreactivity of serum” value (control serum FA11, 1/300 dilution) is recorded as “X (X = positive for immunoreactivity as defined by 00/background^3.0)”. Besides, for the setting “control serum FA12, 1/300 dilution”, the “immunoreactivity of serum” value is recorded as “X (X = positive for immunoreactivity as defined by 00/background^3.0)”. The “immunoreactivity of serum” value (control serum H.B., 1/300 dilution) is “X (X = positive for immunoreactivity as defined by 00/background^3.0)”. The “immunoreactivity of serum” value (control serum P.T., 1/300 dilution) is listed as “X (X = positive for immunoreactivity as defined by 00/background^3.0)”. In addition, the “immunoreactivity of serum” value under setting [15] is recorded as “X (X = positive for immunoreactivity as defined by 00/background^3.0)”.

For the sequence DMVGLAADWLTSTANTNMFT [Peptide 13], the “immunoreactivity of serum” value under setting [5] is “b (b = borderline response (00/background ?2.5-2.9).)”.

With ERANSVTWNPHKMMGVPLQC [Peptide 26], the “number of IDDM” value is listed as 1. Moreover, under setting [2], the “immunoreactivity of serum” value was “X (X = positive for immunoreactivity as defined by 00/background^3.0)”. Besides, under setting [8], the “immunoreactivity of serum” value is reported as “b (b = borderline response (00/background ?2.5-2.9).)”.

Consider EYGTTTMVSYQPLGDKVNFFR [Peptide 36], for which the “number of IDDM” value was found to be 1. Besides, the “immunoreactivity of serum” value under setting [3] is “X (X = positive for immunoreactivity as defined by 00/background^3.0)”.

The record behind these values is patent US8926966B1 (Regents of the University of California, priority 1990, dated 2015).
